Among the test systems are UO-31 renal; BT-549 breast; HT29 colon; UACC-257 melanoma; DU-145 prostate; MDA-MB-231 breast; NCI-H226 lung; SNB-19 CNS; OVCAR-5 ovarian; SK-MEL-5 melanoma.
What all share (experiment): NCI anticancer screen, dose series, 48 h

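Interpolation was linear, between the two tested concentrations surrounding the appropriate level; five concentrations were tested over 48 hours in 96-well plates. TGI is the concentration that stops growth completely.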

As to `O=S(=O)(SC1=NCCN1)c1ccc2ccccc2c1`, the TGI with UO-31 renal is over 100 µM; with BT-549 breast, 83.9 µM; with HT29 colon it was 40 µM; with UACC-257 melanoma, over 100 µM; with DU-145 prostate, over 100 µM; in the assay with MDA-MB-231 breast, 42.9 µM. The TGI worked out at 98 µM in the assay with NCI-H226 lung, 39.1 µM in the assay on SNB-19 CNS, 49.6 µM in the assay with OVCAR-5 ovarian and 64.5 µM in the assay on SK-MEL-5 melanoma.

For `O=c1oc2ccccc2cc1-c1csc(Nc2ccc(F)cc2)n1`, the TGI was 6.42 µM with UO-31 renal; 17.4 µM in the assay on BT-549 breast; 14.2 µM in the assay with HT29 colon; over 52 µM in the assay with UACC-257 melanoma; 11.3 µM with DU-145 prostate; 26 µM in the assay on MDA-MB-231 breast. Besides, the TGI with NCI-H226 lung was 19.7 µM; in the assay with SNB-19 CNS, over 37.6 µM; in the assay with OVCAR-5 ovarian, 20.9 µM; in the assay with SK-MEL-5 melanoma, 23.9 µM.

`O=c1cc(N2CCNCC2)nc2ccccn12`: the TGI in the assay with UO-31 renal, with BT-549 breast, in the assay on HT29 colon, in the assay on UACC-257 melanoma, with DU-145 prostate and in the assay with MDA-MB-231 breast was over 100 µM in each case. The TGI in the assay with NCI-H226 lung, in the assay with SNB-19 CNS, in the assay on OVCAR-5 ovarian and in the assay on SK-MEL-5 melanoma was over 100 µM throughout.

As for `CCOC(=O)CCCNC(=O)CCCCC(=O)N(C)C`, the TGI in the assay on UO-31 renal, with BT-549 breast, in the assay with HT29 colon, with UACC-257 melanoma, in the assay with DU-145 prostate and in the assay on MDA-MB-231 breast was over 100 µM each time. In addition, the TGI with NCI-H226 lung, in the assay with SNB-19 CNS, in the assay with OVCAR-5 ovarian and in the assay on SK-MEL-5 melanoma was over 100 µM throughout.

Take `O=C1CN(C(=O)C2CCCN2C(=O)C2CCCN2)C(=O)CN1` (stereo not drawn): the TGI in the assay with UO-31 renal, with BT-549 breast, in the assay with HT29 colon, in the assay on DU-145 prostate, with MDA-MB-231 breast and in the assay with NCI-H226 lung was over 100 µM throughout. Besides, the TGI with SNB-19 CNS, in the assay with OVCAR-5 ovarian and with SK-MEL-5 melanoma was over 100 µM in each case.

For `N#CC12CNCC1CN=N2` (stereo not drawn), the TGI with UO-31 renal, in the assay on BT-549 breast, with HT29 colon, in the assay on UACC-257 melanoma, in the assay on DU-145 prostate and in the assay with MDA-MB-231 breast was over 100 µM throughout. For the same compound, the TGI in the assay with NCI-H226 lung, in the assay with SNB-19 CNS, in the assay on OVCAR-5 ovarian and in the assay on SK-MEL-5 melanoma was over 100 µM each time.

As for `N#CC1C(=O)N(c2ccccc2)NC12OC(=O)c1ccncc12` (stereo not drawn), the TGI in the assay with UO-31 renal, with BT-549 breast, in the assay on HT29 colon, with UACC-257 melanoma, in the assay with DU-145 prostate and in the assay on MDA-MB-231 breast was over 20 µM throughout. Moreover, the TGI in the assay with NCI-H226 lung, in the assay on SNB-19 CNS, in the assay on OVCAR-5 ovarian and in the assay on SK-MEL-5 melanoma was over 20 µM in each case.

As for `O=C1CSSCC(=O)Nc2ccccc2N1`, the TGI in the assay on UO-31 renal, with BT-549 breast, in the assay on HT29 colon, in the assay on UACC-257 melanoma, in the assay with DU-145 prostate and with MDA-MB-231 breast was over 100 µM in each case. Moreover, the TGI in the assay with NCI-H226 lung, in the assay with SNB-19 CNS, in the assay on OVCAR-5 ovarian and in the assay on SK-MEL-5 melanoma was over 100 µM in each case.

In the case of `CC(=O)Oc1cc(Cl)c(C)c2c1[C@H]1CC[C@]3(C)[C@@H](OC(C)=O)CC[C@H]3[C@@H]1CC2`, the TGI with UO-31 renal, in the assay with BT-549 breast, with HT29 colon, in the assay with UACC-257 melanoma, in the assay on DU-145 prostate and with MDA-MB-231 breast was over 100 µM throughout. The TGI with NCI-H226 lung, in the assay on SNB-19 CNS, in the assay with OVCAR-5 ovarian and in the assay with SK-MEL-5 melanoma was over 100 µM throughout.

In the case of `C[N+](C)(C)CCCSc1nc2ccccc2[nH]1`, the TGI in the assay on UO-31 renal, in the assay on BT-549 breast, in the assay with HT29 colon, in the assay with UACC-257 melanoma, in the assay on DU-145 prostate and with MDA-MB-231 breast was over 100 µM in each case. Moreover, the TGI in the assay on NCI-H226 lung, in the assay with SNB-19 CNS, in the assay with OVCAR-5 ovarian and in the assay on SK-MEL-5 melanoma was over 100 µM each time.

Turning to `CC(C)NC(NC(C)C)=C(S(=O)(=O)C(F)(F)C(F)(F)C(F)(F)C(F)(F)F)S(=O)(=O)C(F)(F)C(F)(F)C(F)(F)C(F)(F)F`, the TGI with UO-31 renal, with BT-549 breast, in the assay with HT29 colon, in the assay on UACC-257 melanoma, with DU-145 prostate and in the assay with MDA-MB-231 breast was over 100 µM throughout. The TGI with NCI-H226 lung, in the assay on SNB-19 CNS, in the assay on OVCAR-5 ovarian and with SK-MEL-5 melanoma was over 100 µM each time.

For `CC(C)(C)C(=O)OCOP(=O)(OCOC(=O)C(C)(C)C)OCC1OC(n2ccc(=O)[nH]c2=O)C(N=[N+]=[N-])C1O` (stereo not drawn), the TGI in the assay on UO-31 renal stood at 4.58 µM; in the assay on BT-549 breast, 14.9 µM; in the assay with HT29 colon it was 11.4 µM; in the assay with UACC-257 melanoma it was 18.1 µM; with DU-145 prostate, 17.6 µM; with MDA-MB-231 breast, 21.1 µM. Besides, the TGI was 22 µM in the assay on NCI-H226 lung, 25.7 µM in the assay with SNB-19 CNS, 16.1 µM in the assay on OVCAR-5 ovarian and 16.8 µM in the assay with SK-MEL-5 melanoma.

Regarding `c1ccc(-c2nc3ccccc3n3c(CN4CCCCC4)nnc23)cc1`, the TGI in the assay with BT-549 breast, with HT29 colon, in the assay with UACC-257 melanoma, in the assay with DU-145 prostate, in the assay with MDA-MB-231 breast and in the assay on NCI-H226 lung was over 100 µM each time. Also, the TGI in the assay with SNB-19 CNS, with OVCAR-5 ovarian and in the assay with SK-MEL-5 melanoma was over 100 µM throughout.

(Values after PubChem BioAssay (NCI).)
